Measured values taken from patent US11325893B2, “Hydrofluoroethers and methods of using same” (3M INNOVATIVE PROPERTIES COMPANY, priority 2018, dated 2022).

Tests used:
rats [1] = assay: 4-hour acute inhalation toxicity in rats (LC-50); format: in vivo; conditions: 4 hr inhalation in air, 14-day post-dose monitoring
Procedure: The 4-hour acute inhalation toxicity in rats (LC-50) was measured by dosing animals in air at the amounts shown in Table 2 for 4 hours, followed by 14-day post-dose monitoring. Based on the animal test results and the vapor concentration of the test compound, the LC-50 values were estimated.

[2] = Log KOW (octanol/water partition coefficient) by HPLC, OECD Method 117; format: physicochemical
Procedure: In these Examples, values of Log KOW (octanol/water partition coefficients) were determined by HPLC using the method described in OECD Method 117.

rats [3] = assay: Acute single dose oral toxicity in rats; format: in vivo; conditions: single oral dose 2000 mg/kg body weight
Procedure: The acute single dose oral toxicity of Comparative Example CE2 was examined in rats dosed at 2000 mg/kg body weight. […] Based on this study, the LD50 of CE2 was estimated to be >2000 mg/kg body weight.

With `COC(F)(C(F)(F)C(F)(F)F)C(F)(C(F)(F)F)C(F)(F)F` (centres unmarked) [CE1, NOVEC 7300] the “LC-50 (4 hr Inhalation rats)” value (rats [1]) was over 430 mg/L and the “Log KOW” value [2] was 4.3.

In the case of `FC(F)(F)C(F)(F)C1(F)OCCC1(C(F)(F)F)C(F)(F)F` (centres unmarked) [Example 1, 2-fluoro-2-(1,1,2,2,2-pentafluoroethyl)-3,3-bis(trifluoromethyl)tetrahydrofuran], the “LC-50 (4 hr Inhalation rats)” value (rats [1]) is reported as over 1000 ppmv and the “Log KOW” value [2] is reported as 4.4.

In the case of `FC(F)(F)C(F)(F)C(F)(F)C1(C(F)(F)F)CCOC1(F)C(F)(C(F)(F)F)C(F)(F)F` (centres unmarked) [Example 2, 2-fluoro-3-(1,1,2,2,3,3,3-heptafluoropropyl)-2-[1,2,2,2-tetrafluoro-1-(trifluoromethyl)ethyl]-3-(trifluoromethyl)tetrahydrofuran], the “Log KOW” value [2] is reported as 5.8.

With NOVEC 7700 [Comparative Example CE2] the “clinical observations during the post dose recovery period” value (rats [3]) was “No adverse clinical observations”, the necropsy results (rats [3]) was “normal for all animals” and the “Log KOW” value [2] was 6.6.
